Reference: patent publication US20240180893A1, “METHODS OF TREATMENT OF BREAST CANCER” (AstraZeneca AB, priority 2022, published 2024)

Legend:
Format in all cases: in vivo, human (post-menopausal women)
[1] = system: HR+, HER2− metastatic or loco-regionally recurrent breast cancer; test: SERENA-2 phase 2 study: PFS, RECIST 1.1, by Blinded Independent Central Review (BICR); conditions: all patients
Excerpt: Measures to minimise bias: randomisation and blinding. This is an open-label study. All patients will receive active treatment. As the Investigators will not be blinded to study treatments, a BICR of tumour scans will be performed to provide independent tumour response assessment in addition to response evaluation by Investigator. To reduce potential bias during the study, eligible patients will be randomly allocated at a 1:1:1:1 ratio to receive 1 of the 4 study treatments.
Blinded Independent Central Review of tumour assessments. Coded copies of all imaging assessments (regardless of modality and including unscheduled visit scans) will be sent to an appointed Contract Research Organisation (CRO) for central analysis. Results of this independent review will not be communicated to Investigators, and the management of patients will be based solely upon the results of the RECIST assessment conducted by the Investigator. The imaging scans will be reviewed by 2 independent radiologists using RECIST version 1.1 and will be adjudicated, if required (i.e., 2 reviewers will review the scans and, in case of a disagreement, adjudication is performed by a separate reviewer). The independent reviewers will be blinded to study treatment.
The BICR will be conducted on an ongoing basis throughout the study. Where possible scans will be batched, and an in-patient series of assessments read together. For each patient, the BICR will define the overall visit response (i.e., the response obtained overall at each visit by assessing TLs, NTLs, and new lesions) and no programmatic derivation of overall visit response is necessary.
Blinded independent central review of tumour response. A sensitivity analysis for the primary endpoint for this study will be based on the BICR of the radiological scans. For each patient, the BICR will define the overall visit response (i.e., the response obtained overall at each visit by assessing TLS, NTLs and new lesions) data and no programmatic derivation of visit response is necessary. PFS will be derived programmatically from the overall visit responses determined for each visit. A BICR of all patients will be performed for the final database lock for the primary analysis of PFS. The BICR will cover all available scans up to the respective DCO.
As a sensitivity analysis to the primary endpoint, the above analysis methods will be repeated based on the BICR.

[2] = system: HR+, HER2− metastatic or loco-regionally recurrent breast cancer; test: SERENA-2 phase 2 study: clinical benefit rate at 24 weeks (CBR24); conditions: for Adjusted CBR24 rate (%): logistic regression, factors prior CDK4/6 inhibitor and lung and/or liver metastasis; for CBR24: comparison against fulvestrant, odds ratio: odds ratio > 1 favors AZD9833
Excerpt: (§1) The CBR24 is defined as the percentage of patients who have a best objective response (BoR) of CR or PR in the first 25 weeks (to allow for a late assessment within the assessment window) or who have SD (without subsequent cancer therapy) for at least 23 weeks after start of treatment (to allow for an early assessment within the assessment window). The CBR is defined based on the Investigator's assessment of RECIST 1.1.
The CBR24 will be summarised by treatment group and analysed using a logistic regression model (similarly to the analysis for the ORR).
as §1, with “Secondary endpoints: clinical benefit rate at 24 weeks. The CBR24” for “The CBR24”, “The CBR will be defined based” for “The CBR is defined based”, “assessment of RECIST, and will be summarised by treatment group and analysed using a logistic regression model (similarly to the analysis for the ORR).” for “assessment of RECIST 1.1.”

ESR1m ctDNA = test: SERENA-2 phase 2 study: changes in ESR1m ctDNA summed Variant Allele Frequency (sVAF %)
Excerpt: FIG. 6: Changes in ESR1m ctDNA summed Variant Allele Frequency (sVAF %) by treatment group and visit comparisons (pre-treatment is a comparison of samples collected at screening and cycle 1 day 1, C×D1 are comparisons of samples collected at cycle 1 day 1 and cycle×day 1). Variants defined as ESR1m are E380Q, V422del, S463P, L536H/P/R, Y537C/D/N/S. Points represent individual patients, box represents upper quartile, median and lower quartile, whiskers represent 1.5 interquartile range. Treatment with camizestrant 75 mg and 150 mg caused a 100% or near 100% reduction in the level of ESR1m at all timepoints.
Blood and plasma samples for circulating tumour (ctDNA) and cancer antigen 15-3 (CA15-3) analyses will be collected at screening, on Day 1 and Day 15 of Cycle 1, on Day 1 of Cycles 2 to 5, 8-weekly (Day 1 of every 2nd cycle) from Week 25 (Cycle 7) to coincide with tumour imaging, at the EOT and/or disease progression.
The following samples for biomarker research are optional and will collected from patients in the study where possible as specified in the SoA (Table 6). • Paired tumour biopsy samples; pre- and on-treatment. Samples will be collected for patients with tumours amenable to biopsies in up to 12 patients per treatment group. • Additional tumour biopsy samples may be collected at time of progression. Blood samples for circulating tumour DNA. […]

C[C@]12CC[C@@H]3c4ccc(O)cc4C[C@@H](CCCCCCCCC[S+]([O-])CCCC(F)(F)C(F)(F)F)[C@H]3[C@@H]1CC[C@@H]2O (stereo partly drawn) [fulvestrant, reference compound]
Median PFS ([1]; fulvestrant 500 mg once monthly injection): 3.7 months
(%) of patients with clinical benefit at 24 weeks ([2]; fulvestrant): 36.8%
Number of patients with clinical benefit at 24 weeks ([2]; fulvestrant, N=68 evaluable): 25
Adjusted CBR24 rate (%) ([2]; fulvestrant): 37.1%
Reduction in ESR1m ctDNA (ESR1m ctDNA; fulvestrant arm, compared with camizestrant): the extent of the reduction is lower than that observed with camizestrant

C[C@@H]1Cc2c(ccc3[nH]ncc23)[C@@H](c2ccc(NC3CN(CCCF)C3)cn2)N1CC(F)(F)F [camizestrant, N-(1-(3-fluoropropyl)azetidin-3-yl)-6-((6S,8R)-8-methyl-7-(2,2,2-trifluoroethyl)-6,7,8,9-tetrahydro-3H-pyrazolo[4,3-f]isoquinolin-6-yl)pyridin-3-amine]
Hazard ratio for disease progression relative to fulvestrant ([1]; camizestrant 75 mg once daily): 0.56
Median PFS ([1]; camizestrant 75 mg once daily): 7.4 months
Hazard ratio for disease progression relative to fulvestrant ([1]; camizestrant 150 mg once daily): 0.47
Median PFS ([1]; camizestrant 150 mg once daily): 12.7 months
(%) of patients with clinical benefit at 24 weeks ([2]; AZD9833 75 mg): 48.6%
Number of patients with clinical benefit at 24 weeks ([2]; AZD9833 75 mg, N=70 evaluable): 34
Adjusted CBR24 rate (%) ([2]; AZD9833 75 mg): 50.4%
CBR24: comparison against fulvestrant, odds ratio ([2]; AZD9833 75 mg): 1.73
(%) of patients with clinical benefit at 24 weeks ([2]; AZD9833 150 mg): 52.3%
Number of patients with clinical benefit at 24 weeks ([2]; AZD9833 150 mg, N=65 evaluable): 34
Adjusted CBR24 rate (%) ([2]; AZD9833 150 mg): 55.2%
CBR24: comparison against fulvestrant, odds ratio ([2]; AZD9833 150 mg): 2.09
Reduction in the level of ESR1m (ctDNA sVAF) (ESR1m ctDNA; camizestrant 75 mg and 150 mg, all timepoints vs cycle 1 day 1): ~100%
